Experiment [1] deals with S. aureus. Put plainly: Antimicrobial test, MIC against S. aureus. The format is cell-based. To be noted: Gram-positive bacteria S. aureus (n = 2). The protocol:
(§1) The solutions based on the Q-PHB-PDMAEMA were tested for efficacy in killing clinically significant pathogens: the […] and Gram-negative bacteria (E. coli).

For experiment [2], the system named is E. coli. Nature of the experiment: Antimicrobial test, MIC against E. coli. The format is cell-based. The conditions noted are these: Gram-negative bacteria E. coli (n = 2). The method, then: as §1

Data on 1 sequence can be found in patent US10450421B2, “Synthesis of multiarm poly[(R)-3-hydroxybutyrate] and its derivatives” (AGENCY FOR SCIENCE, TECHNOLOGY AND RESEARCH, priority 2015, dated 2019).

Ends that are not written are not given here.

The term MIC denotes the lowest concentration found to suppress growth. A higher MIC goes with a need for much substance.

As to GIGKFLHSAGKFGKAFVGEIMKS [Magainin I], the MIC in experiment [1] and in experiment [2] was 130 µg/mL each time.
